Measurements as given in US10004716B2, “Therapeutic/ preventive agent containing coumarin derivative as active ingredient” (NIPPON ZOKI PHARMACEUTICAL CO., LTD., priority 2014, dated 2018).

Experiments:
CTGF gene expression = assay: Evaluation II: TGF-β-induced gene expression of fibrosis-related factors in NHLF cells: CTGF; type: cell-based, human; conditions: 30 μM test substance, 200 μg/mL pirfenidone, 30 μM DEX, 1.0 μM TPCA-1 or 10 μM FP 2 hours, then TGF-β 0.5 ng/mL 4 hours, n = 4
Procedure: (§1) NHLF cells were sown so as to make their amount 5×10^4 cells/well to each well of a 12-well plate and incubated to an extent of 80% confluent in a medium where fibroblast growth medium 2 supplement mix (FGM-2 SingleQuots, Lonza) was added to a fibroblast basal medium (FBM, Lonza). After that, incubation was conducted for 2 hours in a DMEM medium containing 30 μM of a test substance, 200 μg/mL of pirfenidone, 30 μM of dexamethasone (DEX), 1.0 μM of TPCA-1 or 10 μM of fluticasone propionate (FP) and, after TGF-β was added thereto so as to make its final concentration 0.5 ng/mL, incubation was carried out for 4 hours more.
(§2) With regard to the extraction of RNA from NHLF cells, the synthesis of cDNA from RNA and the action of the test substance to gene expression of fibrosis-related factors [CFGF, TGF-β1, fibronectin and Col 1], the tests were carried out in the same manners as in (2) and (3) of the above Test Example 3.

TGF-β1 gene expression = assay: Evaluation II: TGF-β-induced gene expression of fibrosis-related factors in NHLF cells: TGF-β1; type: cell-based, human; conditions: 30 μM test substance, 200 μg/mL pirfenidone, 30 μM DEX, 1.0 μM TPCA-1 or 10 μM FP 2 hours, then TGF-β 0.5 ng/mL 4 hours, n = 4
Procedure: as §1, §2

[1] = tested on: fibronectin gene expression; assay: Evaluation II: TGF-β-induced gene expression of fibrosis-related factors in NHLF cells: fibronectin; type: cell-based, human; conditions: 30 μM test substance, 200 μg/mL pirfenidone, 30 μM DEX, 1.0 μM TPCA-1 or 10 μM FP 2 hours, then TGF-β 0.5 ng/mL 4 hours, n = 4
Procedure: as §1, §2

Col 1 gene expression = assay: Evaluation II: TGF-β-induced gene expression of fibrosis-related factors in NHLF cells: Col 1; type: cell-based, human; conditions: 30 μM test substance, 200 μg/mL pirfenidone, 30 μM DEX, 1.0 μM TPCA-1 or 10 μM FP 2 hours, then TGF-β 0.5 ng/mL 4 hours, n = 4
Procedure: as §1, §2

[2] = tested on: mice where pulmonary fibrosis was induced by bleomycin; assay: Lung wet weight increase of mice where pulmonary fibrosis was induced by bleomycin; type: in vivo; conditions: ICR male mice, bleomycin 2 mg/kg i.v. 5 days; test substance 50 mg/kg or pirfenidone 200 mg/kg per os twice daily for 2 weeks; normal control 205, diseased control 303
Procedure: Bleomycin (2 mg/kg) was repeatedly injected intravenously for 5 days to ICR male mice. The mice were organized into 4 groups of normal control group, diseased control group, test substance-administered group and pirfenidone-administered group.
A test substance was suspended in 0.5 w/v % carboxymethyl cellulose sodium (CMC) and 50 mg/kg thereof was repeatedly administered per os with stirring twice daily for 2 weeks using an oral sonde for rats. Pirfenidone was suspended in 0.5 w/v % CMC and 200 mg/kg thereof was repeatedly administered per os with stirring twice daily for 2 weeks using an oral sonde for rats. To the normal control group and the diseased control group, 0.5 w/v % CMC was repeatedly administered per os according to the same administration schedule. After finishing the administration period, both lungs were excised from the mice and their wet weight was measured.

NF-κB = assay: Suppressive action to NF-κB activation (luciferase reporter, HEK293T cells, TNF-α); type: cell-based, human; conditions: HEK293T cells with NF-κB reporter; test substance 25 μml/mL 1 hour, then TNF-α 10 ng/mL 5 hours; stimulated TNF-α = 100
Procedure: A preparation solution containing pGL4.32 [luc2P/NF-κB-RE/Hygrol] (Promega) which is an NF-κB reporter vector, pGL4.74 [hRluc/TK] (Promega) which is a control vector and Lipofectamine LTX (Life Technologies) which is a gene transfer agent was added to human embryo kidney cells (HEK293T cells) sown onto a […] whereupon there were prepared the cells which transiently express a reporter protein.
After 24 hours from the gene transfer, transient expression cells were peeled off by treating with trypsin, sown on a poly-lysine coated white 96-well plate and incubated for one night. The test substance was added to as to make its final concentration 25 μml/mL and, after pre-incubating for 1 hour, TNF-α was added thereto so as to make its final concentration 10 ng/mL followed by incubating for 5 hours more. The cells were dissolved and the activities of a firefly luciferase and a renilla luciferase were measured. Rate of the luminescent intensity by addition of each drug to the luminescent intensity by stimulation with TNF-α were calculated.

SMILES | Copy Numbers per 10000 Copies of GAPDH CTGF (CTGF gene expression) | Copy Numbers per 10000 Copies of GAPDH TGF-β1 (TGF-β1 gene expression) | Copy Numbers per 10000 Copies of GAPDH Fibronectin [1] | Copy Numbers per 10000 Copies of GAPDH Col 1 (Col 1 gene expression) | Wet Lung Weight [2] [mg] | Luminescent Intensity to Stimulated TNF-α (%) (NF-κB)
NC(=O)Nc1sc(-c2ccc(F)cc2)cc1C(N)=O [TPCA-1] | 461.2 copies per 10000 copies of GAP | 886.9 copies per 10000 copies of GAP | 3757.9 copies per 10000 copies of GAP | 840.4 copies per 10000 copies of GAP |  | 
Cc1ccc(=O)n(-c2ccccc2)c1 [Pirfenidone] | 180.6 copies per 10000 copies of GAP | 962.5 copies per 10000 copies of GAP | 1689.7 copies per 10000 copies of GAP | 1027.6 copies per 10000 copies of GAP | 242 | 
O=c1oc2c(OS(=O)(=O)c3cccc([N+](=O)[O-])c3)cccc2cc1NS(=O)(=O)c1cccc([N+](=O)[O-])c1 [Compound 17, 3-[(3-Nitrophenyl)sulfonylamino]-2-oxochromen-8-yl 3-nitrobenzenesulfonate] |  |  |  |  |  | 0.1
C[C@@H]1C[C@H]2[C@@H]3CCC4=CC(=O)C=C[C@]4(C)[C@@]3(F)[C@@H](O)C[C@]2(C)[C@@]1(O)C(=O)CO [DEX, dexamethasone] | 1010.1 copies per 10000 copies of GAP | 546.9 copies per 10000 copies of GAP | 4314.6 copies per 10000 copies of GAP | 610.7 copies per 10000 copies of GAP |  | 
CCC(=O)O[C@]1(C(=O)SCF)[C@H](C)C[C@H]2[C@@H]3C[C@H](F)C4=CC(=O)C=C[C@]4(C)[C@@]3(F)[C@@H](O)C[C@@]21C [FP, fluticasone propionate] | 1166.8 copies per 10000 copies of GAP | 450.6 copies per 10000 copies of GAP | 3603.2 copies per 10000 copies of GAP | 593.3 copies per 10000 copies of GAP |  | 
